Experimental data reported in patent publication US20130231311A1, “NOVEL FORMULATIONS FOR TREATMENT OF MIGRAINE” (ZOGENIX, INC., priority 2008, published 2013).
Values joined by “and” are separate entries in the source; they are usually repeats but may differ in a detail not shown here. Equal values may be shown once. Read-outs that look alike come from different tables or passages of the source.

Key:
[1] = in vivo; cited from earlier work
[2] = time to peak plasma concentration of triptans (FIG. 3); details: in vivo
migraine [3] = details: in vivo; cited from earlier work
migraine [4] = details: cited from earlier work
[5] = pharmacokinetic parameters of injected versus oral sumatriptan (FIG. 2); type: in vivo; details: injected vs oral; injected dose is 3% of the oral dose
From the text: (§1) FIG. 2 is a Table comparing pharmacokinetic and pharmacodynamic parameters of subcutaneously injected and oral sumatriptan.
(§2) FIG. 2 compares pharmacokinetic parameters of injected sumatriptan with oral sumatriptan.

migraine [6] = assay: pain relief at 2 hours, injected versus oral sumatriptan (FIG. 2); type: in vivo; details: via injection, 107 minutes after maximum plasma concentration
From the text: as §1, §2

CNS(=O)(=O)CCc1ccc2[nH]cc(C3CCN(C)CC3)c2c1 [naratriptan]
half life [1]: 5 to 8 h

CN(C)CCc1c[nH]c2ccc(Cn3cncn3)cc12 [rizatriptan]
time to peak plasma concentration, earlier than sumatriptan and zolmitriptan [2]: ~1 h | half life [1]: 2 to 3 h

CN[C@@H]1CCc2[nH]c3ccc(C(N)=O)cc3c2C1 [frovatriptan]
half life [1]: 26 h

CN(C)CCc1c[nH]c2ccc(C[C@H]3COC(=O)N3)cc12 [zolmitriptan]
pain relief at two hours compared with rizatriptan (migraine [3]): less than that of rizatriptan | half life [1]: 3 h

O=C(O)Cc1ccccc1Nc1c(Cl)cccc1Cl [diclofenac]
effectiveness (migraine [4]; intramuscular): 70% and 88% | effectiveness (migraine [4]; oral): 44%

CN1CCC[C@@H]1Cc1c[nH]c2ccc(CCS(=O)(=O)c3ccccc3)cc12 [eletriptan]
half life [1]: 4 h

CNS(=O)(=O)Cc1ccc2[nH]cc(CCN(C)C)c2c1 [sumatriptan]
AUC relative to oral dose [5]: about ⅕ | maximum concentration relative to oral dose [5]: approximately half | pain relief at two hours compared with rizatriptan (migraine [3]): less than that of rizatriptan | half life [1]: 2.5 h | pain relief at 2 hours, injected vs oral dose (migraine [6]): better for the injected dose than for the oral dose

CN(C)CCc1c[nH]c2ccc(CS(=O)(=O)N3CCCC3)cc12 [almotriptan]
half life [1]: 3 to 4 h
